In the test the target is T1, CFTR (Homo sapiens, UniProt P13569, DEL508-508).
T1 construct: endogenous in cells; host or cells: primary human bronchial epithelial cells from CF subjects (F508del/MF-HBE), differentiated at air-liquid interface
Briefly: HBE assay: Ussing chamber assay of CFTR-mediated short-circuit currents. Format: cell-based. To be noted: for EC50: read-out: HBE EC50. In outline:
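CFTR-mediated Isc (μA/cm²) equals the peak response to apical 20 μM forskolin minus the residual after a 20 μM each BPO/GlyH-101/CFTR inhibitor 172 cocktail, recorded in Ussing chambers at Vhold 0 mV, 37 °C, pH 7.4, with 30 μM apical amiloride. Cells were F508del/MF HBE cultures preincubated 18-24 h with corrector (concentration range or 10 μM) plus 1 μM ivacaftor in 20% human serum.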

Setting [1] is: Table 11, read-out: HBE Max Activity (%).
Where [2] appears, read: Table 12, at 10 μM, read-out: HBE Activity at 10 μM (%).
Where [3] appears, read: Table 13, read-out: HBE Max Activity (%).
[4] abbreviates: Table 11, at 10 μM, read-out: HBE Activity at 10 μM (%).
Where [5] appears, read: HBE assay, read-out: HBE Max activity (%).
Setting [6] is: Table 12, read-out: HBE Max Activity (%).
Where [7] appears, read: Table 10, read-out: HBE Max activity (%).
The mark [8] stands for this setting: Table 10, at 10 μM, read-out: HBE activity at 10 (μM) (%).

Like-named read-outs stand apart in the source and are kept apart here. Where only a bound is given, the exact number is not on record here.

Usually EC50 stands for the concentration that produces a half-maximal response.

T1 sequence (P13569 with tags, fused parts or gaps DEL508-508): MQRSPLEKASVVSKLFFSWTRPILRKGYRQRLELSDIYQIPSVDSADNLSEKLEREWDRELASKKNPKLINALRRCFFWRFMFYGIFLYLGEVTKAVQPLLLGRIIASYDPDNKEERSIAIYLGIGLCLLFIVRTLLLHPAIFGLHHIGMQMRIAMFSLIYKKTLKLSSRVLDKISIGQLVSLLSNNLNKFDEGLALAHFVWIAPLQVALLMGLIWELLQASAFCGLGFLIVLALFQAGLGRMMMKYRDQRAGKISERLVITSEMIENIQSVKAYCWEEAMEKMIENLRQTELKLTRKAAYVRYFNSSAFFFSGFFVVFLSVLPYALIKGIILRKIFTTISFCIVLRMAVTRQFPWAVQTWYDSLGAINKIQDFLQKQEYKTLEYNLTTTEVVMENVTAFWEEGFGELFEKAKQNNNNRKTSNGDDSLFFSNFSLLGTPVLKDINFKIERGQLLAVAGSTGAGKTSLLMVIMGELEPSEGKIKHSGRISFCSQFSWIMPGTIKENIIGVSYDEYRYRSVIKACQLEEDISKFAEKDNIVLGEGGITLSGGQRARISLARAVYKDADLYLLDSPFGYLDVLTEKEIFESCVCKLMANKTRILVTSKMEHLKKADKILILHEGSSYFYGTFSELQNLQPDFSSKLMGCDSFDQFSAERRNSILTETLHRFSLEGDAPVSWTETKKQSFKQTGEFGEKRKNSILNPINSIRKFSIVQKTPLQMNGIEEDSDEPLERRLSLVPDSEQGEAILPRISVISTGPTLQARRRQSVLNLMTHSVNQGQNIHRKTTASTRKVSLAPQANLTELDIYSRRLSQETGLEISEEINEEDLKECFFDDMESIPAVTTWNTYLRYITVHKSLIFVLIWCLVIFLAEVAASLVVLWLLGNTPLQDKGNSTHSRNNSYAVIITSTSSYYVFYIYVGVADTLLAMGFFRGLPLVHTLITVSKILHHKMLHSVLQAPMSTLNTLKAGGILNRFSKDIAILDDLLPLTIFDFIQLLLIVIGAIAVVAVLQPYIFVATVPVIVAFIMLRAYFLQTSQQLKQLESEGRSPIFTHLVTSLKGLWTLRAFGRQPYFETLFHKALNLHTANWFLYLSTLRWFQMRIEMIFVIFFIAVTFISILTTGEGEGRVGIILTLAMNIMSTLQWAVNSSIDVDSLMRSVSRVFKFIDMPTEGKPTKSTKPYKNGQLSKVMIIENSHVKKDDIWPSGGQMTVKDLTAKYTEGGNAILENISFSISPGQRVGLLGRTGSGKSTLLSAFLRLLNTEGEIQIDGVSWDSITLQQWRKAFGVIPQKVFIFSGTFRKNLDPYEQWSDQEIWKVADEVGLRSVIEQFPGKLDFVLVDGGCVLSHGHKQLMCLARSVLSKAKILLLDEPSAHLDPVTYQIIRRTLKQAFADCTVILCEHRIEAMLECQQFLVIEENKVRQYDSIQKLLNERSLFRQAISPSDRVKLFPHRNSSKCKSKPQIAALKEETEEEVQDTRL

With `Cc1cccc(C)c1-c1cc2nc(n1)NS(=O)(=O)c1cccc(c1)C(=O)N(Cc1cccc(N(C)CC(C)(C)C3CC3)n1)[C@H](CC(C)(C)C)CO2` [Compound 1421], the activation at 10 µM (HBE assay, 10 μM, read-out: HBE Activity at 10 μM (%)) is above 60%.

For `Cc1cccc(C)c1-c1cc2nc(n1)NS(=O)(=O)c1cccc(c1)C(=O)N(Cc1cncc(N3CCOCC3)n1)[C@H](CC(C)(C)C)CO2` [Compound 896], for the setting “Table 11”, the EC50 is below 1 µM. Under setting [1], the Emax was above 60%.

Regarding `Cc1cccc(C)c1-c1cc2nc(n1)NS(=O)(=O)c1cccc(c1)C(=O)N(C[C@H]1C[C@@H](NC(=O)OC(C)C)C1)[C@H](CC(C)(C)C)CO2` [Compound 1006], the activation at 10 µM under setting [2] is above 600%.

In the case of `Cc1cccc(C)c1-c1cc2nc(n1)NS(=O)(=O)c1cccc(c1)C(=O)N(Cc1nccc(C(C)(C)C)n1)[C@H](CC(C)(C)C)CO2` [Compound 814], the half-maximal effective concentration (EC50) (Table 11) is below 1 µM. In addition, the Emax under setting [1] was above 60%.

For `Cc1cccc(C)c1-c1cc2nc(n1)NS(=O)(=O)c1cccc(c1)C(=O)N(Cc1cccc(N(CCO)C(C)C)n1)[C@H](CC(C)(C)C)CO2` [Compound 530], under “Table 13”, the EC50 was below 1 µM. The Emax under setting [3] is above 60%.

Regarding `Cc1cccc(C)c1-c1cc2nc(n1)NS(=O)(=O)c1cccc(c1)C(=O)N(Cc1cc3ccccn3n1)[C@H](CC(C)(C)C)CO2` [Compound 743], the activation at 10 µM under setting [4] is below 30%.

In the case of `Cc1cccc(C)c1-c1cc2nc(n1)NS(=O)(=O)c1cccc(c1)C(=O)N(Cc1ncc(N3CCC(C)(C)C3)cn1)[C@H](CC1CCC1)CO2` [Compound 1477], the EC50 (HBE assay) was below 1 µM. Moreover, the Emax under setting [5] is above 60%.

For the compound `Cc1cccc(C)c1-c1cc2nc(n1)NS(=O)(=O)c1cccc(c1)C(=O)N(Cc1ncc(OC3CCCC3)cn1)[C@H](CC(C)(C)C)CO2` [Compound 566], the 50% effective concentration (EC50) (Table 12) was below 1 µM. The Emax under setting [6] was above 60%.

Consider `Cc1cccc(C)c1-c1cc2nc(n1)NS(=O)(=O)c1cccc(c1)C(=O)N(CC1CCN(c3ncccn3)CC1)[C@H](CC(C)(C)C)CO2` [Compound 109, (11R)-6-(2,6-Dimethylphenyl)-11-(2,2-dimethylpropyl)-2,2-dioxo-12-[(1-pyrimidin-2-yl-4-piperidyl)methyl]-9-oxa-2λ^6-thia-3,5,12,19-tetrazatricyclo[12.3.1.14,8]nonadeca-1(18),4(19),5,7,14,16-hexaen-13-one], for which the concentration giving a half-maximal response (EC50) (Table 10) is below 1 µM. Further, the Emax under setting [7] is above 60%.

Take `Cc1cccc(C)c1-c1cc2cc(n1)NS(=O)(=O)c1cccc(c1)C(=O)N(Cc1ncc(CC(C)C)cn1)[C@H](CC(C)(C)C)CO2` [Compound 523]: the activation at 10 µM under setting [2] was above 600%.

Regarding `Cc1cccc(C)c1-c1cc2nc(n1)NS(=O)(=O)c1cccc(c1)C(=O)N(Cc1ccc(-c3ccccc3)cn1)[C@H](CC(C)(C)C)CO2` [Compound 476], where the note is “Table 10”, the “HBE Max activity (%)” value is reported as “+++ (+++ is >60%)” and the EC50 was 1 to 3 µM.

With `Cc1cccc(C)c1-c1cc2nc(n1)NS(=O)(=O)c1cccc(c1)C(=O)N(Cc1cncc(C3CCCCC3)c1)[C@H](CC(C)(C)C)CO2` [Compound 286], the concentration giving a half-maximal response (EC50) (Table 12) is below 1 µM. Also, the Emax under setting [6] is above 60%.

Turning to `Cc1cccc(C)c1-c1cc2nc(n1)NS(=O)(=O)c1cccc(c1)C(=O)N(Cc1ncc(N3CCC(C)(C)CC3)cn1)[C@H](CC(C)(C)C)CO2` [Compound 117, (11R)-6-(2,6-dimethylphenyl)-12-[[5-(4,4-dimethyl-1-piperidyl)pyrimidin-2-yl]methyl]-11-(2,2-dimethylpropyl)-2,2-dioxo-9-oxa-2λ^6-thia-3,5,12,19-tetrazatricyclo[12.3.1.14,8]nonadeca-1(18),4(19),5,7,14,16-hexaen-13-one], the half-maximal effective concentration (EC50) (Table 11) was below 1 µM. In addition, the Emax under setting [1] was above 60%.

For the compound `Cc1cccc(C)c1-c1cc2nc(n1)NS(=O)(=O)c1cccc(n1)C(=O)N(Cc1cncc(N(C)CC(C)(C)C)n1)[C@H](CC(C)(C)C)CO2` [Compound 1126], the EC50 (Table 13) is below 1 µM. The Emax under setting [3] is above 60%.

As for `Cc1cccc(C)c1-c1cc2nc(n1)NS(=O)(=O)c1cccc(c1)C(=O)N(Cc1cncc(C(C)C)n1)[C@H](CC(C)(C)C)CO2` [Compound 892], the concentration giving a half-maximal response (EC50) (Table 11) was below 1 µM. Also, the Emax under setting [1] was above 60%.

For the compound `Cc1cccc(C)c1-c1cc2nc(n1)NS(=O)(=O)c1cccc(c1)C(=O)N(Cc1cccc(N(C)C3CCOCC3)n1)[C@H](CC(C)(C)C)CO2` [Compound 1371], for the setting “HBE assay”, the EC50 was below 1 µM. For the same compound, the Emax under setting [5] was above 60%.

For the compound `Cc1cccc(C)c1-c1cc2nc(n1)NS(=O)(=O)c1cccc(c1)C(=O)N(Cc1ccc(C(C)(C)C)nc1)[C@H](CC(C)(C)C)CO2` [Compound 1074], the Emax under setting [7] was above 60%.

Take `Cc1cccc(C)c1-c1cc2nc(n1)NS(=O)(=O)c1cccc(c1)C(=O)N(Cc1cccc(N(C)CC3(C)CC3)n1)[C@H](CC(C)(C)C)CO2` [Compound 1354]: the half-maximal effective concentration (EC50) (HBE assay) is below 1 µM. The Emax under setting [5] is above 60%.

As to `Cc1cccc(C)c1-c1cc2nc(n1)NS(=O)(=O)c1cccc(c1)C(=O)N(Cc1ncc(N(C)C3CC4(CC4)C3)cn1)[C@H](CC(C)(C)C)CO2` [Compound 575], for the setting “Table 12”, the EC50 was below 1 µM. For the same compound, the Emax under setting [6] is above 60%.

In the case of `Cc1cccc(C)c1-c1cc2nc(n1)NS(=O)(=O)c1cccc(c1)C1Oc3nc4ccccc4cc3CN1[C@H](CC(C)(C)C)CO2` (stereo partly drawn) [Compound 755], the activation at 10 µM under setting [8] is above 60%.

Regarding `Cc1cccc(C)c1-c1cc2nc(n1)NS(=O)(=O)c1cccc(c1)C(=O)N(CC1CCOC1)[C@H](CC(C)(C)C)CO2` (stereo partly drawn) [Compound 901], the activation at 10 µM under setting [4] was above 60%.

Turning to `Cc1cccc(C)c1-c1cc2nc(n1)NS(=O)(=O)c1cccc(c1)C(=O)N(Cc1ncc(N3CC(F)(F)C3)cn1)[C@H](CC(C)(C)C)CO2` [Compound 1444], where the note is “HBE assay”, the half-maximal effective concentration (EC50) was below 1 µM. For the same compound, the Emax under setting [5] is above 60%.

For the compound `Cc1cccc(C)c1-c1cc2nc(n1)NS(=O)(=O)c1cccc(c1)C(=O)N(Cc1ncc(OC3CC4(CC4)C3)cn1)[C@H](CC1CC1)CO2` [Compound 1478], the EC50 (HBE assay) is below 1 µM. For the same compound, under setting [5], the Emax was above 60%.

Regarding `CC[C@@H](C)Oc1cnc(CN2C(=O)c3cccc(c3)S(=O)(=O)Nc3nc(cc(-c4c(C)cccc4C)n3)OC[C@H]2CC(C)C)nc1` [Compound 1391], for the setting “HBE assay”, the EC50 is below 1 µM. Under setting [5], the Emax was above 60%.

Take `Cc1cccc(C)c1-c1cc2nc(n1)NS(=O)(=O)c1cccc(c1)C(=O)N(Cc1ncc(OC3CCC3)cc1Cl)[C@H](CC(C)(C)C)CO2` [Compound 690]: where the note is “Table 13”, the EC50 was below 1 µM. Also, the Emax under setting [3] was above 60%.

Regarding `Cc1cccc(C)c1-c1cc2nc(n1)NS(=O)(=O)c1cccc(c1)C(=O)N(Cc1cncc(N(C)CC(C)(C)C)c1)[C@H](CC(C)(C)C)CO2` [Compound 281], under setting [2], the activation at 10 µM is above 600%.

Regarding `Cc1cccc(C)c1-c1cc2nc(n1)NS(=O)(=O)c1cccc(c1)C(=O)N(Cc1ccnn1C)[C@H](CC(C)(C)C)CO2` [Compound 827], the activation at 10 µM under setting [8] is above 60%.

Consider `Cc1cccc(C)c1-c1cc2nc(n1)NS(=O)(=O)c1cccc(c1)C(=O)N(Cc1ncc(N3CCC(C)(C)C3)cn1)[C@H](C(C)C)CO2` [Compound 695], for which, under setting [2], the activation at 10 µM is above 600%. Moreover, the concentration for a half-maximal effect (EC50) (Table 12) was below 1 µM. In addition, under setting [6], the Emax was below 30%.

With `Cc1cccc(C)c1-c1cc2nc(n1)NS(=O)(=O)c1cccc(c1)C(=O)N(Cc1ncc(OC3CCCC3)cn1)[C@H](CC(C)C)CO2` [Compound 1408], the 50% effective concentration (EC50) (HBE assay) fell in the range of 1 to 3 µM. For the same compound, the Emax under setting [5] is above 60%.

Turning to `Cc1cccc(C)c1-c1cc2nc(n1)NS(=O)(=O)c1cccc(c1)C(=O)N(CC1CCC(NCC(=O)O)CC1)[C@H](CC(C)(C)C)CO2` (stereo partly drawn) [Compound 912], the activation at 10 µM under setting [8] is below 300%.

As to `Cc1cccc(C)c1-c1cc2nc(n1)NS(=O)(=O)c1cccc(c1)C(=O)N(CC(=O)N1CCCC1c1ccccc1)[C@H](CC(C)(C)C)CO2` (stereo partly drawn) [Compound 188], the activation at 10 µM (Table 13, at 10 μM, read-out: HBE Activity at 10 μM (%)) was above 600%.

Consider `Cc1cccc(C)c1-c1cc2nc(n1)NS(=O)(=O)c1cccc(c1)C(=O)N(Cc1ccc(C3CC4(C3)CC(C)(C)C4)cn1)[C@H](CC(C)(C)C)CO2` [Compound 157, (11R)-6-(2,6-Dimethylphenyl)-11-(2,2-dimethylpropyl)-12-[[5-(2,2-dimethylspiro[3.3]heptan-6-yl)-2-pyridyl]methyl]-2,2-dioxo-9-oxa-2λ6-thia-3,5,12,19-tetrazatricyclo[12.3.1.14,8]nonadeca-1(18),4(19),5,7,14,16-hexaen-13-one], for which the 50% effective concentration (EC50) (Table 13) was below 1 µM. Further, the Emax under setting [3] was above 60%.

For `Cc1cccc(C)c1-c1cc2nc(n1)NS(=O)(=O)c1cccc(c1)C(=O)N(Cc1cccc(N3CCC34CCOC4)n1)[C@H](CC(C)(C)C)CO2` (stereo partly drawn) [Compound 532], the EC50 (Table 13) was below 1 µM. The Emax under setting [3] is above 60%.

For `Cc1cccc(C)c1-c1cc2nc(n1)NS(=O)(=O)c1cccc(c1)C(=O)N(Cc1nc3ccccn3c1C)[C@H](CC(C)(C)C)CO2` [Compound 700], the activation at 10 µM under setting [2] is above 600%.

`Cc1cccc(C)c1-c1cc2nc(n1)NS(=O)(=O)c1cccc(c1)C(=O)N(Cc1c(C)n[nH]c1C)[C@H](CC(C)(C)C)CO2` [Compound 485]: the activation at 10 µM under setting [8] is above 60%.

On to `CCOc1cnc(CN2C(=O)c3cccc(c3)S(=O)(=O)Nc3nc(cc(-c4c(C)cccc4C)n3)OC[C@H]2CC2CCC2)nc1` [Compound 1487], for which the EC50 (HBE assay) is below 1 µM. Under setting [5], the Emax was above 60%.

(Values after patent US20240150377A1, “MODULATORS OF CYSTIC FIBROSIS TRANSMEMBRANE CONDUCTANCE REGULATOR” (VERTEX PHARMACEUTICALS INCORPORATED, priority 2020, published 2024).)
